According to US12319664B2, “Herbicidally active 3-phenylisoxazoline-5-carboxamides of cyclopentenylcarboxylic acid derivatives” (Bayer Aktiengesellschaft, priority 2018, dated 2025):

Key:
POLCO = assay: Post-emergence herbicidal action against POLCO; format: in vivo, Polygonum convolvulus; conditions: application rate 80 g/ha, rated visually about 3 weeks after treatment
Summary of the method: (§1)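 Percent herbicidal activity was judged visually relative to untreated controls approximately 3 weeks after spraying. Treatment occurred at the one-leaf stage on greenhouse-grown plants in sandy loam.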

ECHCG = assay: Post-emergence herbicidal action against ECHCG; format: in vivo, Echinochloa crus-galli; conditions: application rate 80 g/ha, rated visually after about 3 weeks
Summary of the method: as §1

HORMU = assay: Post-emergence herbicidal action against HORMU; format: in vivo, Hordeum murinum; conditions: application rate 80 g/ha
Summary of the method: as §1

LOLRI = assay: Post-emergence herbicidal action against LOLRI; format: in vivo, Lolium rigidum; conditions: application rate 80 g/ha, rated visually after about 3 weeks
Summary of the method: as §1

VIOTR = assay: Post-emergence herbicidal action against VIOTR; format: in vivo, Viola tricolor; conditions: application rate 80 g/ha, rated visually about 3 weeks after treatment
Method: [table] 2. Post-emergence herbicidal action against harmful plants and crop plant compatibility Seeds of monocotyledonous and dicotyledonous weeds and crop plants are placed in sandy loam in plastic or wood-fibre pots, covered with soil and cultivated in a greenhouse under controlled growth conditions. 2 to 3 weeks after sowing, the test plants are treated at the one-leaf stage. The compounds of the invention, formulated in the form of wettable powders (WP) or as emulsion concentrates (EC), are then sprayed onto the green parts of the plants as aqueous suspension or emulsion with addition of 0.5% additive at a water application rate of 600 l/ha (converted). After the test plants have been kept in the greenhouse under optimum growth conditions for about 3 weeks, the activity of the preparations is rated visually in comparison to untreated controls. For example, 100% activity=the plants have died, 0% activity=like control plants.

ALOMY = assay: Post-emergence herbicidal action against ALOMY; format: in vivo, Alopecurus myosuroides; conditions: application rate 80 g/ha, rated visually after about 3 weeks
Summary of the method: as §1

ABUTH = assay: Post-emergence herbicidal action against ABUTH; format: in vivo, Abutilon theophrasti; conditions: application rate 80 g/ha, rated visually about 3 weeks after treatment
Summary of the method: as §1

STEME = assay: Post-emergence herbicidal action against STEME; format: in vivo, Stellaria media; conditions: application rate 80 g/ha, rated visually about 3 weeks after treatment
Summary of the method: as §1

PHBPU = assay: Post-emergence herbicidal action against PHBPU; format: in vivo, Pharbitis purpurea; conditions: application rate 80 g/ha, rated visually about 3 weeks after treatment
Summary of the method: as §1

VERPE = assay: Post-emergence herbicidal action against VERPE; format: in vivo, Veronica persica; conditions: application rate 80 g/ha
Summary of the method: as §1

SETVI = assay: Post-emergence herbicidal action against SETVI; format: in vivo, Setaria viridis; conditions: application rate 80 g/ha, rated visually after about 3 weeks
Summary of the method: as §1

AMARE = assay: Post-emergence herbicidal action against AMARE; format: in vivo, Amaranthus retroflexus; conditions: application rate 80 g/ha, rated visually about 3 weeks after treatment
Summary of the method: as §1

AVEFA = assay: Post-emergence herbicidal action against AVEFA; format: in vivo, Avena fatua; conditions: application rate 80 g/ha, rated visually after about 3 weeks
Summary of the method: as §1

Row | Structure (SMILES) | Herbicidal action against [%] POLCO (POLCO) [%] | Herbicidal action against [%] ECHCG (ECHCG) [%] | Herbicidal action against [%] HORMU (HORMU) [%] | Herbicidal action against [%] LOLRI (LOLRI) [%] | Herbicidal action against [%] VIOTR (VIOTR) [%] | Herbicidal action against [%] ALOMY (ALOMY) [%] | Herbicidal action against [%] ABUTH (ABUTH) [%] | Herbicidal action against [%] STEME (STEME) [%] | Herbicidal action against [%] PHBPU (PHBPU) [%] | Herbicidal action against [%] VERPE (VERPE) [%] | Herbicidal action against [%] SETVI (SETVI) [%] | Herbicidal action against [%] AMARE (AMARE) [%] | Herbicidal action against [%] AVEFA (AVEFA) [%]
1 | CC1(C(=O)NC2C=CC(C(=O)O)C2)CC(c2cc(F)cc(C#N)c2)=NO1 (mixture of isomers) [Example I-075] | 90 | 90 | 100 | 100 | 90 | 100 | 80 | 90 | 90 | 90 | 80 | 90 | –
2 | COCCOC(=O)C1C=CC(NC(=O)C2(C)CC(c3cc(F)cc(C#N)c3)=NO2)C1 (mixture of isomers) [Example I-082] | 90 | 90 | 100 | 100 | 90 | 100 | 90 | 90 | 90 | 90 | 90 | 90 | 100
3 | CC1(C(=O)NC2C=CC(C(=O)OCCCl)C2)CC(c2cc(F)cc(C#N)c2)=NO1 (mixture of isomers) [Example I-083] | 90 | 90 | 100 | 100 | 90 | 100 | 90 | 90 | 90 | 90 | 80 | 90 | 100
4 | COC(=O)C1C=CC(NC(=O)C2(C)CC(c3cc(F)cc(C#N)c3)=NO2)C1 (mixture of isomers) [Example I-084] | 90 | 90 | 100 | 100 | 90 | 100 | 90 | 100 | 90 | 90 | 90 | 90 | 100
5 | N#Cc1cccc(C2=NOC(C(=O)NC3C=CC(C(=O)O)C3)(C(F)(F)F)C2)c1 (mixture of isomers) [Example I-085] | 80 | 90 | 100 | 100 | 80 | 90 | 90 | 80 | 90 | 90 | 80 | 90 | 100
6 | COC(=O)C1C=CC(NC(=O)C2(C(F)(F)F)CC(c3cccc(C#N)c3)=NO2)C1 (mixture of isomers) [Example I-087] | 90 | 80 | 100 | 100 | 90 | 100 | 90 | 90 | 90 | 90 | 80 | 90 | 100
7 | N#Cc1cccc(C2=NOC(C(=O)NC3C=CC(C(=O)OCCCl)C3)(C(F)(F)F)C2)c1 (mixture of isomers) [Example I-088] | 90 | 90 | 90 | 100 | 90 | – | 90 | 90 | 90 | 90 | 90 | 90 | 100
8 | N#Cc1cc(F)cc(C2=NOC(C(=O)NC3C=CC(C(=O)O)C3)(C(F)(F)F)C2)c1 (mixture of isomers) [Example I-090] | 90 | 80 | 100 | 100 | 90 | 100 | 90 | 90 | 90 | 90 | 90 | 90 | 100
9 | CC(C)(C#N)NC(=O)C1C=CC(NC(=O)C2(C(F)(F)F)CC(c3cc(F)cc(F)c3)=NO2)C1 (mixture of isomers) [II-34] | 90 | 80 | 80 | 90 | 90 | 90 | 80 | 90 | 90 | 90 | 80 | 90 | 100
10 | CC(C)C(C#N)NC(=O)C1C=CC(NC(=O)C2(C(F)(F)F)CC(c3cc(F)cc(F)c3)=NO2)C1 (mixture of isomers) [II-35] | 90 | – | 80 | 90 | 90 | 90 | 80 | 90 | 90 | 90 | 80 | 90 | 100
11 | COC(=O)C1=CC[C@H](NC(=O)C2(C)CC(c3cc(F)cc(F)c3)=NO2)C1 (stereo partly shown) [III-10] | – | 90 | 100 | 100 | 90 | 100 | 90 | 90 | 90 | 90 | 90 | 90 | 100
12 | CC1(C(=O)N[C@H]2CC=C(C(=O)OCc3ccccc3)C2)CC(c2cc(F)cc(F)c2)=NO1 (stereo partly shown) [III-12] | 90 | – | 100 | 100 | 90 | 100 | 90 | 80 | 90 | 90 | 80 | 90 | 100
13 | C=CC1(C(=O)N[C@H]2CC=C(C(=O)OCCOCC)C2)CC(c2cc(F)cc(F)c2)=NO1 (stereo partly shown) [III-16] | 90 | 90 | 90 | 100 | 90 | – | 80 | 80 | 90 | 80 | 80 | 90 | 100
